Where “and” joins values, the source holds several entries; their conditions need not be identical. Identical values can stand only once. Like-named read-outs stand apart in the source and are kept apart here. Square brackets hold non-standard residues; d marks the D form. Peptide text beside a SMILES is read from it. Tyr(3-NO2) = N[CH](Cc1ccc(O)c([N+](=O)[O-])c1)C(=O)O
Experiments:
[1] = biological target: T1, rat recombinant neurolysin (Rattus norvegicus, UniProt P42676); experiment: Enzymatic assay: QFS hydrolysis by rat recombinant neurolysin; assay type: biochemical; conditions: QFS 25 μM, compared to vehicle control; for % activity at 10: 10 μM compound; for % activity at (100): 100 μM compound
T1 construct: polyhistidine (N); made in house; host or cells: Escherichia coli (pBAD/His vector)
Experimental: Rat recombinant neurolysin—N-terminal polyhistidine tagged recombinant rat neurolysin was produced in Escherichia coli using a plasmid construct in pBAD/His vector system (Invitrogen) kindly provided by Dr. David W. Rodgers (University of Kentucky) (32,33). Bacterial culture was carried out in Terrific Broth in 2 L Erlenmeyer flasks using an incubator shaker (1-2400, New Brunswick Scientific). Expression was induced by addition of arabinose (1 mM final concentration), the cells were pelleted 3 h after induction and stored at −80° C. freezer. Bacterial pellets were resuspended and lysed in phosphate buffer (20 mM NaH2PO4, 500 mM NaCl, 0.05% Tween-20, pH 8.0) containing 0.25 mg/ml lysozyme, 1 mM phenylmethylsulfonyl fluoride, 0.05 mg/ml DNAse and 0.02 mg/ml RNase, followed by brief sonication. After centrifugation (40,000×g, 20 min at 4° C.) the supernatant was applied to a Ni-NTA Superflow cartridge (Qiagen), followed by washing and elution of recombinant neurolysin with phosphate buffer containing 25 and 250 mM imidazole, respectively. The eluted protein was further purified by size exclusion chromatography using a TSK gel BioAssist G2SWxl column (Tosoh bioscience) in AKTA Purifier FPLC system (GE Healthcare). […] Specific activity of recombinant neurolysin was determined by an enzymatic assay described below.
All assays were initiated by addition of QFS (100 μl assay volume in 96-well plates), and each experimental sample was present in duplicate.
In all experiments, test compounds were incubated with neurolysin for 10 min at 37° C. before addition of the substrate to start the reaction. All test compounds were dissolved in DMSO at 10 to 50 mM stock concentrations.
Statistical Analyses—statistical analyses and curve fitting were conducted with GraphPad Prism 6.0 software. For each enzymatic reaction, slope of the line which represents the initial velocity (Vo) for the reaction progress curve was calculated using the liner regression model of the software (Vo=Slope=Δ fluorescent intensity of the reaction product/Δ time). EC50 values for the modulators were calculated by fitting initial velocity values for hydrolysis of QFS by neurolysin in the presence of varying concentrations of a modulator into a nonlinear regression model for the three-parameter log(stimulator) vs. response equation [Y=Bottom+(Top−Bottom)/(1+10^((Log EC50−X)))].

Neurolysin (Nln) = biological target: T2, Neurolysin (Nln) (Rattus norvegicus, UniProt P42676); experiment: Nln activation in isolated enzyme assay (A50, Amax); assay type: biochemical; conditions: for EC50: read-out: A50 (concentration required to activate Nln by 50%)
T2 construct: polyhistidine (N); made in house; host or cells: Escherichia coli (pBAD/His vector), if the rat enzyme of b61 was used

[2] = 100% = normal enzyme turnover, 95% CI in parentheses

T1 sequence (P42676 38-704): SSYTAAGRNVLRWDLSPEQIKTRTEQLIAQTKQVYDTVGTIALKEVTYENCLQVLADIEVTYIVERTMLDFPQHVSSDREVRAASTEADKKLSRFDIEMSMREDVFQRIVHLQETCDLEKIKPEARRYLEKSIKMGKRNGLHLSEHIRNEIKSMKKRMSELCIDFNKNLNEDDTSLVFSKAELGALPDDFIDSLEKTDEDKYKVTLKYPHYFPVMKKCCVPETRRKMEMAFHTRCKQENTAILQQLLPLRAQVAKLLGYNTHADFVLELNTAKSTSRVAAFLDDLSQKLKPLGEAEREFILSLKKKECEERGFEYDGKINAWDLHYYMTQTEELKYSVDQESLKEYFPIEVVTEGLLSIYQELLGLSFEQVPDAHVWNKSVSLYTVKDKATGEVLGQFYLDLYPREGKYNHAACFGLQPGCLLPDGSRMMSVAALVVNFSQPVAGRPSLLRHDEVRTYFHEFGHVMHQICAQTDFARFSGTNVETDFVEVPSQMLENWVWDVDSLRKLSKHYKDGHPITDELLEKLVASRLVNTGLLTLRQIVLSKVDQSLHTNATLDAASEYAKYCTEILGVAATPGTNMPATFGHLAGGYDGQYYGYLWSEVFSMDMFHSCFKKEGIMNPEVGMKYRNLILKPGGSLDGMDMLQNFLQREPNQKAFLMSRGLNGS
T2 sequence (P42676 38-704): as above

Compound | % activity at 10 [1] [%] | % activity at (100) [1] [%] | other results
N#CC(C#N)N=Nc1ccc(S(=O)(=O)N=C(N)N)cc1 [Compound 134119] | 83 | 41 | –
Cl.NC(=O)C(Cc1ccc(O)c([N+](=O)[O-])c1)NC(=O)C(N)Cc1ccccc1 (stereo not drawn) [Compound 343028] (H-Phe-[Tyr(3-NO2)]-NH2; configuration not given here) | 98 | 73 | –
O=P1(NCC2CCCO2)OCC2(CO1)COP(=O)(NCC1CCCO1)OC2 (stereo not drawn) [Compound 88659] | 100 | 100 | –
CNCCc1cn(C2OC(CO)C(O)C(O)C2O)cn1 (stereo not drawn) [Compound 131922] | 96 | 28 | –
CC(C)CC(NC(=O)C(N)CC(=O)O)C(=O)O (stereo not drawn) [Compound 332636] (H-Asp-Leu-OH; configuration not given here) | 103 | 64 | –
CC(NCCN(C)C)C1CC2CCCCN2C1 (stereo not drawn) [Compound 600947] | 107 | 105 | –
CC(C)C(N)C(=O)NC(C(=O)NS(=O)(=O)c1ccc(N)cc1)C(C)C (stereo not drawn) [Compound 340049] | 94 | 52 | –
S=C(NCN1CCNCC1)C(=S)NCN1CCNCC1 [Compound 203396] | 102 | 106 | –
CC1(C)CC(=O)C(CC(=O)c2ccccc2)=C(NN=C(N)N)C1 [Compound 282137] | 106 | 94 | –
CN(CCc1cnc2nc(N)[nH]c(=O)c2n1)c1ccc(C(=O)O)cc1 [Compound 121184] | 77 | 18 | –
CC(NCCN1CCCC1)C(O)c1ccc(O)c(O)c1.Cl (stereo not drawn) [Compound 48778] | 89 | 84 | –
CC1CN(CCCN)C(C)CN1CCCN (stereo not drawn) [Compound 14541] | 97 | 103 | –
COC1OC2COC(c3ccccc3)OC2C(N=Cc2ccccc2)C1O (stereo not drawn) [Compound 210826] | 101 | 105 | –
O=C(O)CNC(=O)CNC(=O)c1ccc2ccccc2n1 [Compound 400844] | 104 | 84 | –
Cc1cn(C(C=O)OC(C=O)CO)c(=O)[nH]c1=O (stereo not drawn) [Compound 266752] | 107 | 97 | –
NC1=C(O)/C(=N/NS(=O)(=O)c2ccccc2)C(c2ccc3c(c2)OCO3)O1 (stereo not drawn) [Compound 640354] | 79 | 76 | –
COCN1CCC2N(COC)CCC3N(COC)CCC1N23 (stereo not drawn) [Compound 82001] | 105 | 100 | –
COc1ccc2c(c1)c(=O)c(C(=O)O)cn2CCCOc1ccc([N+](=O)[O-])cc1 [Compound 211002] | 104 | 100 | –
COc1ccc(CCNC(=O)[C@H](N)Cc2c[nH]cn2)cc1 [Compound 4f, (R)-2-amino-3-(1H-imidazol-4-yl)-N-(4-methoxyphenethyl)propanamide] | – | – | Amax (maximum % activation achieved) (Neurolysin (Nln); [2]): 378.3 (350.5 to 411.9) %
N[C@@H](Cc1c[nH]cn1)C(=O)NCc1ccc(C(F)(F)F)cc1 [DF-8-2] | – | – | Amax (maximum % activation achieved) (Neurolysin (Nln)): 305.2 (285.3 to 328) %
N[C@@H](Cc1c[nH]cn1)C(=O)NCc1ccccc1C(F)(F)F [DF-10-2] | – | – | Amax (maximum % activation achieved) (Neurolysin (Nln)): 334 (313.7 to 357.2) %
N[C@H](Cc1c[nH]cn1)C(=O)NCc1cccc(C(F)(F)F)c1 [Compound 5m] | – | – | Amax (maximum % activation achieved) (Neurolysin (Nln)): 282 (258.4 to 309.1) %
CCC1COc2nc(=O)c(C=NCCCN(C)C)c(N)n21 (stereo not drawn) [Compound 608820] | 102 | 108 | –
COc1ccc(CNC(=O)[C@H](N)Cc2cnc[nH]2)cc1 [AB-1-16-2] | – | – | Amax (maximum % activation achieved) (Neurolysin (Nln)): 703.5 (588.9 to 915.6) %
COC(=O)CCN1CCN(CCO)CC1C (stereo not drawn) [Compound 659264] | 104 | 107 | –

Compound | % activity at 10 [1] [%] | % activity at (100) [1] [%] | other results
CCOCCOCCN1CNc2nc(N)[nH]c(=O)c2C1 [Compound 92597] | 105 | 98 | –
N[C@H](Cc1c[nH]cn1)C(=O)NCCc1ccccc1C(F)(F)F [HP2CF3] | – | – | Amax (maximum % activation achieved) (Neurolysin (Nln)): 396.2 (384.5 to 408.5) %
N[C@@H](Cc1c[nH]cn1)C(=O)NCc1ccccc1 [DF-3-2B] | – | – | Amax (maximum % activation achieved) (Neurolysin (Nln)): 152.2 (137.3 to 171.5) %
N[C@@H](Cc1c[nH]cn1)C(=O)NCCCCc1ccccc1 [Compound 8a, (S)-2-amino-3-(1H-imidazol-4-yl)-N-(4-phenylbutyl)propanamide] | – | – | Amax (maximum % activation achieved) (Neurolysin (Nln); [2]): 328 (309-351) %
N[C@@H](Cc1c[nH]cn1)C(=O)NCCc1cc2ccccc2[nH]1 [SR-7-2d] | – | – | Amax (maximum % activation achieved) (Neurolysin (Nln)): 259 (240.7 to 281) %
N[C@@H](Cc1c[nH]cn1)C(=O)NCCc1ccc(F)cc1 [Compound 4m, (S)-2-amino-N-(4-fluorophenethyl)-3-(1H-imidazol-4-yl)propanamide] | – | – | EC50 (Neurolysin (Nln); 95% CI in parentheses): 28 µM and 27.9 µM; Amax (maximum % activation achieved) (Neurolysin (Nln); [2]): 323.1 (311.4 to 335.6) %
CSCCC(N)[P+](=O)O (stereo not drawn) [Compound 359097] | 87 | 92 | –
CN1CCC(O)(c2ccccc2)C(CCC(=O)N2CCCC2)C1.Cl (stereo not drawn) [Compound 15180] | 102 | 95 | –
Cl.NC(=O)C(Cc1ccc(O)cc1)NC(=O)C(N)Cc1c[nH]c2ccccc12 (stereo not drawn) [Compound 339919] (H-Trp-Tyr-NH2; configuration not given here) | 100 | 63 | –
N[C@@H](Cc1c[nH]cn1)C(=O)NCc1ccc2ccccc2c1 [DF-9-2] | – | – | EC50 (Neurolysin (Nln); 95% CI in parentheses): 12.3 µM; Amax (maximum % activation achieved) (Neurolysin (Nln); [2]): 262.3 (246.7 to 279.4) %
O=C(O)C1C2C=CC(O2)C1C(=O)NCCCN1CCOCC1 (stereo not drawn) [Compound 47096] | 101 | 111 | –
NCC(=O)N1CCC[C@H]1C(=O)NCC(=O)NCC(=O)O [Compound 89624] (H-GPGG-OH) | 102 | 38 | –
CC1(C)SC(C(NC(=O)Cc2ccccc2)C(=O)O)NC1C(=O)O (stereo not drawn) [Compound 163084] | 103 | 102 | –
CC(C)CC(NC(=O)C(C)N)C(=O)NCC(=O)O (stereo not drawn) [Compound 333568] | 106 | 77 | –
N[C@@H](Cc1c[nH]cn1)C(=O)NCc1ccc(F)cc1 [Compound 5n, (S)-2-amino-N-(4-fluorobenzyl)-3-(1H-imidazol-4-yl)propanamide] | – | – | Amax (maximum % activation achieved) (Neurolysin (Nln)): 293 (276.5-310.7) %
N[C@H](Cc1c[nH]cn1)C(=O)NCc1ccc(OC(F)(F)F)cc1 [Compound 5q, (R)-2-amino-3-(1H-imidazol-4-yl)-N-(4-(trifluoromethoxy)benzyl)propanamide] | – | – | Amax (maximum % activation achieved) (Neurolysin (Nln)): 337.1 (312 to 364.9) %
N[C@H](Cc1c[nH]cn1)C(=O)NCCc1ccc(C(F)(F)F)cc1 (single isomer, unassigned) [AB-1-8-2] | – | – | Amax (maximum % activation achieved) (Neurolysin (Nln)): 643 (588.8 to 714) %
N[C@@H](Cc1c[nH]cn1)C(=O)NCc1ccc(SC(F)(F)F)cc1 [Compound 5r] | – | – | Amax (maximum % activation achieved) (Neurolysin (Nln)): 287.5 (277.4 to 298.4) %
N[C@H](Cc1c[nH]cn1)C(=O)NCCCCc1ccccc1 [Compound 8b, (R)-2-amino-3-(1H-imidazol-4-yl)-N-(4-phenylbutyl)propanamide] | – | – | Amax (maximum % activation achieved) (Neurolysin (Nln); [2]): 233.8 (215.9 to 254.8) %
CCCCCCN(C)C12CN3CN(CN(C3)C1)C2 [Compound 281707] | 109 | 113 | –
NCCCNCCSP(=O)(O)O [Compound 296961] | 106 | 127 | –
O=C1CSC(c2cccnc2)N1CCN1C(=O)CSC1c1cccnc1 (stereo not drawn) [Compound 615399] | 108 | 108 | –
NCC(SSC(CN)C(=O)O)C(=O)O (stereo not drawn) [Compound 302851] | 104 | 80 | –
Clc1cc(Cl)c(C[N+]23CN4CN(CN(C4)C2)C3)cc1Cl.[Cl-] [Compound 155877] | 82 | 4 | –

Reference: patent publication US20210198647A1, “Enhancers of Neurolysin Activity” (Texas Tech University System, priority 2018, published 2021)
